Patent US20090069320A1, “Substituted 4-Amino-Quinazoline Compounds with Metabotropic Glutamate Receptor Regulating Activity and Uses Thereof” (Gruenenthal GmbH, priority 2006, published 2009)

Molecular target: T1, mGluR5 receptor (Sus scrofa, UniProt I3LUI7)
T1 construct: 450 μg of protein from brain homogenate with 5 nM ^3[H]-MPEP; from tissue; host or cells: pig brain halves without medulla, cerebellum and pons
Experiment: [3H]-MPEP mGluR5 receptor binding assay (pig brain homogenate)
Details: 10 μM compound, 5 nM [3H]-MPEP; for inhibition at 10 µM: read-out: % Inhibition of mGluR5 Receptor (pig) [^3H]-MPEP Bond at 10 μM
Outline: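 Compounds at 10 μM competed with 5 nM [3H]-MPEP for binding to pig brain membranes (450 μg protein) for 60 min at room temperature in pH 8.0 Hepes buffer. Bound radioactivity was collected on glass-fibre filters and read by β-counting, with 10 μM unlabelled MPEP giving non-specific binding.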

T1 sequence (I3LUI7 19-1212): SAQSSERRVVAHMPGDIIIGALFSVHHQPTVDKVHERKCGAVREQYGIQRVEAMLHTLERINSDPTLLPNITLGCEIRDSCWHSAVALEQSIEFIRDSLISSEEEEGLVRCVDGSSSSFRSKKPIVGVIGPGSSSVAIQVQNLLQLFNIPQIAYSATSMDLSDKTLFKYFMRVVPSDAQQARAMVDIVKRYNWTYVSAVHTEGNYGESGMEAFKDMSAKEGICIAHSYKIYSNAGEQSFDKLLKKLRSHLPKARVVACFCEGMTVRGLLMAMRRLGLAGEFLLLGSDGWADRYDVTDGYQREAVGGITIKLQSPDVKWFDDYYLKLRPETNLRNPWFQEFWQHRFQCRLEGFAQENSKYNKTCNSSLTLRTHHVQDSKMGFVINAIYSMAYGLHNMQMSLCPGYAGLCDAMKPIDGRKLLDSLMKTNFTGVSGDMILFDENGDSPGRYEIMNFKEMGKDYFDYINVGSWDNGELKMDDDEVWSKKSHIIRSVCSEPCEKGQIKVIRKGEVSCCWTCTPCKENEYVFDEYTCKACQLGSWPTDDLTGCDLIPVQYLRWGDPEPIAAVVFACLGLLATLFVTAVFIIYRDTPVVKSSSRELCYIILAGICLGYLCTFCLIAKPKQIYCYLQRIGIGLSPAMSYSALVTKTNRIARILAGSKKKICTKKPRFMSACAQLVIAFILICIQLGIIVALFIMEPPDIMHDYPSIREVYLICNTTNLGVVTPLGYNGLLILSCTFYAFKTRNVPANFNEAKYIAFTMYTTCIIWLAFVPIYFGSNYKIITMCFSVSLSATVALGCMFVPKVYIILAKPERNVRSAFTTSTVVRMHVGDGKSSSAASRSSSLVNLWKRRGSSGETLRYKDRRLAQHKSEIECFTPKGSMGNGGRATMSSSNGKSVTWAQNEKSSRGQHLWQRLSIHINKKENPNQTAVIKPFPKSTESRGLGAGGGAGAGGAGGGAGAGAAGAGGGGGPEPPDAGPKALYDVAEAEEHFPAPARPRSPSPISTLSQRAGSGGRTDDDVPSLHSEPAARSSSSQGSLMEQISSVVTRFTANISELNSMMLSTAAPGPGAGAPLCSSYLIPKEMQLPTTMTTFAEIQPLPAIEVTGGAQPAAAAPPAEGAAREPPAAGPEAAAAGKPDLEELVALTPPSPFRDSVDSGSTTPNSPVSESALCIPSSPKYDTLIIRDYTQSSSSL

| Compound | inhibition at 10 µM | % Inhibition of mGluR5 Receptor (pig) [^3H]-MPEP Bond at 10 μM |
| --- | --- | --- |
| O=C(c1ccccc1C(F)(F)F)N(Cc1cccc(-c2cc(F)c3ncnc(NC4CC4)c3c2)c1)C1CC1 [Example 789, N-cyclopropyl-N-(3-(4-(cyclopropylamino)-8-fluoroquinazolin-6-yl)benzyl)-2-(trifluoromethyl)benzamide] | 84% | – |
| O=C(c1cccc(F)c1)N(Cc1cc(-c2ccc3ncnc(NC4CC4)c3c2)ccc1Cl)C1CC1 [Example 791, N-(2-chloro-5-(4-(cyclopropylamino)quinazolin-6-yl)benzyl)-N-cyclopropyl-3-fluorobenzamide] | 89% | – |
| O=C(c1ccc(F)cc1F)N(Cc1cc(-c2ccc3ncnc(NC4CC4)c3c2)ccc1Cl)C1CC1 [Example 792, N-(2-chloro-5-(4-(cyclopropylamino)quinazolin-6-yl)benzyl)-N-cyclopropyl-2,4-difluorobenzamide] | 88% | – |
| CCCCC(=O)N(Cc1cc(-c2ccc3ncnc(NC4CC4)c3c2)ccc1Cl)C1CC1 [Example 793, N-(2-chloro-5-(4-(cyclopropylamino)quinazolin-6-yl)benzyl)-N-cyclopropyl pentanamide] | – | 94% |
| O=S(=O)(c1ccc(Cl)cc1Cl)N(Cc1cc(-c2ccc3ncnc(NC4CC4)c3c2)ccc1Cl)C1CC1 [Example 794, 2,4-dichloro-N-(2-chloro-5-(4-(cyclopropylamino)quinazolin-6-yl)benzyl)-N-cyclopropyl benzole sulfonamide] | – | 93% |
| O=C(c1cccc(F)c1)N(Cc1cc(-c2ccc3ncnc(NC4CC4)c3c2)ccn1)C1CC1 [Example 795, N-cyclopropyl-N-((4-(4-(cyclopropylamino)quinazolin-6-yl)pyridin-2-yl)methyl)-3-fluorobenzamide] | 73% | – |
| O=S(=O)(c1ccc(Cl)cc1Cl)N(Cc1cc(-c2ccc3ncnc(NC4CC4)c3c2)ccn1)C1CC1 [Example 796, 2,4-dichloro-N-cyclopropyl-N-((4-(4-(cyclopropylamino)quinazolin-6-yl)pyridin-2-yl)methyl)benzole sulfonamide] | – | 78% |
| COCC(=O)N(Cc1cccc(-c2cc3c(NC4CC4)ncnc3cc2C)c1)C1CC1 [Example 797, N-cyclopropyl-N-(3-(4-(cyclopropylamino)-7-methylquinazolin-6-yl)benzyl)-2-methoxyacetamide] | 85% | – |
| O=S(=O)(c1ccccc1)N(Cc1cc(-c2ccc3ncnc(NC4CC4)c3c2)ccc1Cl)C1CC1 [Example 799, N-(2-chloro-5-(4-(cyclopropylamino)quinazolin-6-yl)benzyl)-N-cyclopropyl benzole sulfonamide] | – | 92% |
| O=C(c1ccc(C(F)(F)F)cc1F)N(Cc1cc(-c2ccc3ncnc(NC4CC4)c3c2)ccc1Cl)C1CC1 [Example 800, N-(2-chloro-5-(4-(cyclopropylamino)quinazolin-6-yl)benzyl)-N-cyclopropyl-2-fluoro-4-(trifluoromethyl)benzamide] | 91% | – |
| COCC(=O)N(Cc1cc(-c2ccc3ncnc(NC4CC4)c3c2)ccc1Cl)C1CC1 [Example 801, N-(2-chloro-5-(4-(cyclopropylamino)quinazolin-6-yl)benzyl)-N-cyclopropyl-2-methoxyacetamide] | 88% | – |
| O=S(=O)(c1c(F)c(F)c(F)c(F)c1F)N(Cc1cc(-c2ccc3ncnc(NC4CC4)c3c2)ccc1Cl)C1CC1 [Example 802, N-(2-chloro-5-(4-(cyclopropylamino)quinazolin-6-yl)benzyl)-N-cyclopropyl-2,3,4,5,6-pentafluorobenzole sulfonamide] | – | 97% |
| O=C(c1c(F)c(F)c(F)c(F)c1F)N(Cc1cc(-c2ccc3ncnc(NC4CC4)c3c2)ccn1)C1CC1 [Example 803, N-cyclopropyl-N-((4-(4-(cyclopropylamino)quinazolin-6-yl)pyridin-2-yl)methyl)-2,3,4,5,6-pentafluorobenzamide] | 93% | – |
| CC(C)S(=O)(=O)N(Cc1cc(-c2ccc3ncnc(NC4CC4)c3c2)ccn1)C1CC1 [Example 804, N-cyclopropyl-N-((4-(4-(cyclopropylamino)quinazolin-6-yl)pyridin-2-yl)methyl)propane-2-sulfonamide] | 83% | – |
| O=S(=O)(Cc1ccccc1)N(Cc1cc(-c2ccc3ncnc(NC4CC4)c3c2)ccn1)C1CC1 [Example 805, N-cyclopropyl-N-((4-(4-(cyclopropylamino)quinazolin-6-yl)pyridin-2-yl)methyl)-1-phenylmethane sulfonamide] | 92% | – |
| COc1ccc(S(=O)(=O)N(Cc2cc(-c3ccc4ncnc(NC5CC5)c4c3)ccn2)C2CC2)cc1 [Example 806, N-cyclopropyl-N-((4-(4-(cyclopropylamino)quinazolin-6-yl)pyridin-2-yl)methyl)-4-methoxybenzole sulfonamide] | – | 89% |

| Compound | inhibition at 10 µM | % Inhibition of mGluR5 Receptor (pig) [^3H]-MPEP Bond at 10 μM |
| --- | --- | --- |
| CC(C)(C)Nc1ncnc2ccc(-c3ccc(F)c(CN(C(=O)c4ccco4)C4CC4)c3)cc12 [Example 807, N-(5-(4-(tert-butylamino)quinazolin-6-yl)-2-fluorobenzyl)-N-cyclopropyl furan-2-carboxamide] | – | 90% |
| CC(C)(C)Nc1ncnc2ccc(-c3ccc(F)c(CN(C(=O)c4cccc(C(F)(F)F)c4)C4CC4)c3)cc12 [Example 808, N-(5-(4-(tert-butylamino)quinazolin-6-yl)-2-fluorobenzyl)-N-cyclopropyl-3-(trifluoromethyl)benzamide] | 81% | – |
| CC(C)(C)Nc1ncnc2ccc(-c3ccc(F)c(CN(C(=O)C4CCCCC4)C4CC4)c3)cc12 [Example 809, N-(5-(4-(tert-butylamino)quinazolin-6-yl)-2-fluorobenzyl)-N-cyclopropyl cyclohexane carboxamide] | – | 48% |
| CC(C)(C)Nc1ncnc2ccc(-c3ccc(F)c(CN(C4CC4)S(=O)(=O)c4cccs4)c3)cc12 [Example 810, N-(5-(4-(tert-butylamino)quinazolin-6-yl)-2-fluorobenzyl)-N-cyclopropyl thiophene-2-sulfonamide] | – | 45% |
| O=C(c1cccs1)N(Cc1cc(-c2ccc3ncnc(NC4CC4)c3c2)ccn1)C1CC1 [Example 811, N-cyclopropyl-N-((4-(4-(cyclopropylamino)quinazolin-6-yl)pyridin-2-yl)methyl)thiophene-2-carboxamide] | 71% | – |
| O=S(=O)(c1cccc2cccnc12)N(Cc1cc(-c2ccc3ncnc(NC4CC4)c3c2)ccn1)C1CC1 [Example 812, N-cyclopropyl-N-((4-(4-(cyclopropylamino)quinazolin-6-yl)pyridin-2-yl)methyl)quinoline-8-sulfonamide] | 73% | – |
| O=C(c1ccccc1)N(Cc1cc(-c2ccc3ncnc(NC4CC4)c3c2)ccn1)C1CC1 [Example 813, N-cyclopropyl-N-((4-(4-(cyclopropylamino)quinazolin-6-yl)pyridin-2-yl)methyl)benzamide] | 73% | – |
| CC(C)(C)Nc1ncnc2ccc(-c3ccc(F)c(CN(C(=O)c4ccccc4C(F)(F)F)C4CC4)c3)cc12 [Example 814, N-(5-(4-(tert-butylamino)quinazolin-6-yl)-2-fluorobenzyl)-N-cyclopropyl-2-(trifluoromethyl)benzamide] | 89% | – |
| CC(C)(C)Nc1ncnc2ccc(-c3ccc(F)c(CN(C(=O)Cc4ccccc4)C4CC4)c3)cc12 [Example 815, N-(5-(4-(tert-butylamino)quinazolin-6-yl)-2-fluorobenzyl)-N-cyclopropyl-2-phenylacetamide] | 87% | – |
| O=C(c1ccc(F)cc1F)N(Cc1cc(-c2ccc3ncnc(NC4CC4)c3c2)ccn1)C1CC1 [Example 817, N-cyclopropyl-N-((4-(4-(cyclopropylamino)quinazolin-6-yl)pyridin-2-yl)methyl)-2,4-difluorobenzamide] | 71% | – |
| CC(C)S(=O)(=O)N(Cc1cccc(-c2ccc3ncnc(NCCc4ccccc4)c3c2)c1)C1CC1 [Example 818, N-cyclopropyl-N-(3-(4-(phenethylamino)quinazolin-6-yl)benzyl)propane-2-sulfonamide] | 34% | – |
| CC(C)(C)Nc1ncnc2ccc(-c3ccc(F)c(CN(C(=O)c4cccs4)C4CC4)c3)cc12 [Example 819, N-(5-(4-(tert-butylamino)quinazolin-6-yl)-2-fluorobenzyl)-N-cyclopropyl thiophene-2-carboxamide] | – | 88% |
| CC(C)(C)Nc1ncnc2ccc(-c3ccc(F)c(CN(C(=O)c4cc(Cl)cc(Cl)c4)C4CC4)c3)cc12 [Example 820, N-(5-(4-(tert-butylamino)quinazolin-6-yl)-2-fluorobenzyl)-3,5-dichloro-N-cyclopropyl benzamide] | – | 48% |
| CC(C)(C)Nc1ncnc2ccc(-c3ccc(F)c(CN(C(=O)CCc4ccccc4)C4CC4)c3)cc12 [Example 821, N-(5-(4-(tert-butylamino)quinazolin-6-yl)-2-fluorobenzyl)-N-cyclopropyl-3-phenyl propanamide] | – | 84% |
| CC(C)S(=O)(=O)N(Cc1cc(-c2ccc3ncnc(NC(C)(C)C)c3c2)ccc1F)C1CC1 [Example 822, N-(5-(4-(tert-butylamino)quinazolin-6-yl)-2-fluorobenzyl)-N-cyclopropyl propane-2-sulfonamide] | – | 86% |
| O=C(c1ccncc1)N(Cc1cc(-c2ccc3ncnc(NC4CC4)c3c2)ccn1)C1CC1 [Example 823, N-cyclopropyl-N-((4-(4-(cyclopropylamino)quinazolin-6-yl)pyridin-2-yl)methyl)isonicotinamide] | 62% | – |
